Molecular target: T1, human Topo I (Homo sapiens, UniProt P11387)
T1 construct: expressed in transfected cells; host or cells: S. cerevisiae BY4705 (S288C background), plasmid phTOP1 under the GAL promoter, vector pRS416
T1 sequence (P11387 2-765): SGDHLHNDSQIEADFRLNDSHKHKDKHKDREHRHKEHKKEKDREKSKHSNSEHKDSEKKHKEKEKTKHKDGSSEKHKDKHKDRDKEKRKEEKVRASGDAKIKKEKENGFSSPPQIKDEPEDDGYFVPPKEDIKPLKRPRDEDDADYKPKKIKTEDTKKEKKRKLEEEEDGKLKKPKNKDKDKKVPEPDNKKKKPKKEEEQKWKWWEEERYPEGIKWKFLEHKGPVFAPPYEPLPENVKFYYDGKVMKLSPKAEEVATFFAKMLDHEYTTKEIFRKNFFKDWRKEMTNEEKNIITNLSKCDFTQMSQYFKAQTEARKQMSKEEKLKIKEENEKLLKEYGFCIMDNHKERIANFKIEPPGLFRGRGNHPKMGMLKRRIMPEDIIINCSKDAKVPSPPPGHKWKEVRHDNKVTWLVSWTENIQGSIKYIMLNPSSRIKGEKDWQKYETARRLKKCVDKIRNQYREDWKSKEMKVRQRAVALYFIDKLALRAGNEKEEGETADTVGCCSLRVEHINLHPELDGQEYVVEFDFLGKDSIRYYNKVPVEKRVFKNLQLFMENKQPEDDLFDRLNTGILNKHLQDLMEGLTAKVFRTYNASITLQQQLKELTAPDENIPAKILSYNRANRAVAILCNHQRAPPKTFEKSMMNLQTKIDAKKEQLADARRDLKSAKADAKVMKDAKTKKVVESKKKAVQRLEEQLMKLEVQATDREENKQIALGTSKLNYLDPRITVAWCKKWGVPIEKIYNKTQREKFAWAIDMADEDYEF
Test: Toxicity in yeast overexpressing human Topo I (hTOP1) or htop1-vac mutant
Format: cell-based
Details: GAL promoter, galactose-induced, vs vector
Text: The strains are derived from the A364a genetic background, with the exception of BY4705, which is derived from the S288C background. Gene disruptions were generated by PCR fragment directed replacement (Baudin, et al., Nucleic Acids Research 21: 3329–30 (1993), Guldener, et al., Nucleic Acids Research 24: 2519–24 (1996)). Yeast overexpressing topoisomerase II was constructed by a PCR fragment directed promoter replacement of the topoisomerase II promoter with the yeast GPD promoter flanked upstream by the URA3 marker. All strains (except BY4705) bear the pleitropic drug sensitizing mutations erg6, pdr1, and pdr3 (Balzi, et al., Journal of Bioenergetics & Biomembranes 27: 71–6 (1995), Delaveau, et al, Molecular & General Genetics 244: 501–11 (1994), Gaber, et al., Molecular & Cellular Biology 9: 3447–56 (1989), Saunders, et al., Canadian Journal of Genetics & Cytology, 24: 493–503 (1982). Subik, et al, Current Genetics 10: 665–70 (1986)). The haploid yeast strain BY4705 (Brachmann, et al., Yeast 14: 115–32 (1998)) was used in the experiments described in FIG. 5. Plasmids expressing yeast or human topoisomerase I genes under the GAL promoter (Knab, et al., Journal of Biological Chemistry 268: 22322–30 (1993). Knab, et al., Journal of Biological Chemistry 270: 6141–8 (1995)) were transformed into BY4705 using standard procedures. […]

Row | SMILES | effect of hTOP1 overexpression on toxicity
1 | O=c1c(Cl)c(Cl)cnn1CCCl [compound IIa] | accentuates the toxicity
2 | O=C(CCl)Nc1ccc(C(=O)N/N=C/c2ccc(Cl)cc2)cc1 [compound Ia] | Little or no accentuation

From US7173063B1, “Topoisomerase poisons for the treatment of proliferative disorders” (Fred Hutchinson Cancer Research Center, priority 2000, dated 2007)
